T1: RANK on transiently transfected cells (UniProt Q9Y6Q6 30-616, limits assumed)
T1 construct: whole, on cells
T1 sequence (looked up): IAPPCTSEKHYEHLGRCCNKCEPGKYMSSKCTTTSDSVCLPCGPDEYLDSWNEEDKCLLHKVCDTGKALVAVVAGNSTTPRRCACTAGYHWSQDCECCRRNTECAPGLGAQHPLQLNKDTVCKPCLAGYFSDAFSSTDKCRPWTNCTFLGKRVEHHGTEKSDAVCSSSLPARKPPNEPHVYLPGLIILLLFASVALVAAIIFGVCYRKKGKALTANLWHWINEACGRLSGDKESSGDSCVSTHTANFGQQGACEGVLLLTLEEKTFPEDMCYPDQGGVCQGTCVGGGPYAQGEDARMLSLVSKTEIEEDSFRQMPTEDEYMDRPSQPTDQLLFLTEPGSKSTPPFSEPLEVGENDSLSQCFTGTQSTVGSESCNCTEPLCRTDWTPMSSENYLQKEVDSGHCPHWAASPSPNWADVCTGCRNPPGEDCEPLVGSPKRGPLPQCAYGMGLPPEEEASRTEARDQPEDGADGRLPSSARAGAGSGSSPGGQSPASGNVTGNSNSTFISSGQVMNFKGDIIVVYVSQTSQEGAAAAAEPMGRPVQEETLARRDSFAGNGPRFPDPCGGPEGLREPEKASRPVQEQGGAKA

T2: DR4 on transiently transfected cells (UniProt O00220 24-468, limits assumed)
T2 construct: whole, on cells
T2 sequence (looked up): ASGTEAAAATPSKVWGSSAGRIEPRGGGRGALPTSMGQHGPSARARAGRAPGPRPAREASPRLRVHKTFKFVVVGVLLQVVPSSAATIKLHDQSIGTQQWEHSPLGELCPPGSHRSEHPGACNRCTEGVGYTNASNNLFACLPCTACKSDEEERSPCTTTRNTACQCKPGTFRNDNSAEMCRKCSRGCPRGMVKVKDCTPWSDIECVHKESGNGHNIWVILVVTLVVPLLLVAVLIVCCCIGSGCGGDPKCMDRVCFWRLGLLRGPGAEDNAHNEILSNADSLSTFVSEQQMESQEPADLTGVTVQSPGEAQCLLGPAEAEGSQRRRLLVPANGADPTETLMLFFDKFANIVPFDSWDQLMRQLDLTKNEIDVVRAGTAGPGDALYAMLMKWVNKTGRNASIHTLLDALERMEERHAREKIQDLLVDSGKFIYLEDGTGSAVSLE

T3: CD30 on transiently transfected cells (UniProt P28908 19-595, limits assumed)
T3 construct: whole, on cells
T3 sequence (looked up): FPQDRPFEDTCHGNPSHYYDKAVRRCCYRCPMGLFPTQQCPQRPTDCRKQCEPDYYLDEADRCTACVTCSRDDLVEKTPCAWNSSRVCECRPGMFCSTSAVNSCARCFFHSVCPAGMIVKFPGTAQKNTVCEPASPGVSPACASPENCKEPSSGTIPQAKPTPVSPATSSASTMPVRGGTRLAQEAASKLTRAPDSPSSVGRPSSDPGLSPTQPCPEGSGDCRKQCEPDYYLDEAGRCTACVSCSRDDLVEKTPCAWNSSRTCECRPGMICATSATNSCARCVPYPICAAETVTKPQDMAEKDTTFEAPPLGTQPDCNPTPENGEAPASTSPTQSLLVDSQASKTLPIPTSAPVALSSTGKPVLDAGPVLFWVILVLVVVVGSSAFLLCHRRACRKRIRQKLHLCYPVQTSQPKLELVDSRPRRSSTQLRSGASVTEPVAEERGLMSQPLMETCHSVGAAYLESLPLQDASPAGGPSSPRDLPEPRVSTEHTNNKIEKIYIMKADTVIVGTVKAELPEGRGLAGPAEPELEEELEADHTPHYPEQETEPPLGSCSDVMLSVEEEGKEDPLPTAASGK


Legend:
[1] = system: Primary human aterial endothelial; assay: TNF-gamma activity on primary human arterial endothelial cells; type: cell-based; parameters: key: The numbers of “+” indicate the relative level of activities.; ++: The numbers of “+” indicate the relative level of activities.; +++: The numbers of “+” indicate the relative level of activities.; “−” indicates no detected activity at the concentration range tested
[2] = system: c-Jun kinase (JNK) in U-937 cells; assay: JNK kinase activation assay; type: cell-based; settings: 0.1 to 3.0 μg/ml
Protocol: The cellular kinase designated c-Jun kinase (JNK) is an early event in cellular activation. The activation of JNK by TNF-gamma was analyzed as an additional method of determining cellular reaction to treatment with TNF-gamma. The JNK kinase activation assay is well-known by one of skill in the art and has been described by Derijard and colleagues (Cell 76:1025-1029 (1994)). After treatment of U-937 cells with 0.1 to 3.0 μg/ml of TNF-gamma for 12 hours, the cells were harvested and assayed for JNK kinase activity. By 6 and 12 hours, JNK activity had increased 2- and 3.6-fold, respectively.

[3] = system: Primary HUVEC; assay: TNF-gamma activity on primary HUVEC; type: cell-based, human; parameters: key: The numbers of “+” indicate the relative level of activities.; ++: The numbers of “+” indicate the relative level of activities.; +++: The numbers of “+” indicate the relative level of activities.; “−” indicates no detected activity at the concentration range tested
[4] = molecular target: T1, RANK on transiently transfected cells; assay: flow cytometry on transiently transfected cells
Protocol: (§1) One million cells, in 0.1 ml of FACS buffer (PBS, 0.1% BSA, 0.1% NaN₃), were incubated with 0.1-1 microgram of protein or antibody at RT for 15 min. The cells were washed with 3 ml of FACS buffer, reacted with biotinylated primary antibody, and stained with PE-conjugated secondary antibody at RT for 15 min. Cells were then washed again, resuspended in 0.5 microgram/ml of propidium iodide, and live cells were gated and analyzed on a FACScan using the CellQuest software (BD Biosciences).

[5] = molecular target: T4, 4-1BB on transiently transfected cells (UniProt Q07011 24-255); assay: flow cytometry on transiently transfected cells
T4 construct: whole, on cells
Protocol: as §1

[6] = molecular target: T2, DR4 on transiently transfected cells; assay: flow cytometry on transiently transfected cells
Protocol: as §1

[7] = molecular target: T3, CD30 on transiently transfected cells; assay: flow cytometry on transiently transfected cells
Protocol: as §1

T4 sequence (Q07011 24-255): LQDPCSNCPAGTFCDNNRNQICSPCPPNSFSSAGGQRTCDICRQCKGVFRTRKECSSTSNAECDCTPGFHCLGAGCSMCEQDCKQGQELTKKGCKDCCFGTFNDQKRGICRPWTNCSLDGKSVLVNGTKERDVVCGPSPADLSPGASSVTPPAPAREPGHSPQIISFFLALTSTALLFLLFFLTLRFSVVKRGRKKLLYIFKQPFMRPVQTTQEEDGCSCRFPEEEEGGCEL

| Molecule | Differentiation [1] | Proliferation [1] | increase in JNK activity ([2]; by 6 hours) | increase in JNK activity ([2]; by 12 hours) | Differentiation [3] | Proliferation [3] | binding result [4] | binding result [5] | binding result [6] | binding result [7] |
| --- | --- | --- | --- | --- | --- | --- | --- | --- | --- | --- |
| TNF-gamma: new member of the tumor necrosis factor family; the term refers to TNF-gamma-alpha and/or TNF-gamma-beta | −? | ++ | 2 fold | 3.6 fold | −? | ++ | – | – | – | – |
| FLAG-tagged soluble TNF-gamma-beta (aa 72-251) (ligand, also called FLAG-TL1β; FLAG-TNF-gamma-beta; not shown: The N-terminal FLAG tag (pFLAG-CMV-1 vector) and any vector linker) LKGQEFAPSHQQVYAPLRADGDKPRAHLTVVRQTPTQHFKNQFPALHWEHELGLAFTKNRMNYTNKFLLIPESGDYFIYSQVTFRGMTSECSEIRQAGRPNKPDSITVVITKVTDSYPEPTQLLMGTKSVCEVGSNWFQPIYLGAMFSLQEGDKLMVNVSDISLVDYTKEDKTFFGAFLL | – | – | – | – | – | – | no binding | no binding | no binding | no binding |

From patent US20030129189A1, “Tumor necrosis factor-gamma” (priority 1994, published 2003)
